Assay results reported in patent US5919701A, “Oligonucleotides with activity against human immunodeficiency virus” (priority 1997, dated 1999).

Tests used:
HIV-1 (LAI) [1] = assay: Plaque assay, HeLa-CD4 cells infected with HIV-1 (LAI); assay type: cell-based, HIV-1; HeLa-CD4 cells; conditions: HeLa-CD4, HIV-1 (LAI), plaques formed
Protocol: (§1) HeLa-CD4 cells were tested using a plaque assay as described below. Specific cells (as described in Table 4) were detached using trypsin-EDTA for 8-10 minutes at 37° C. The cells were then centrifuged at 100 rpm for 10 minutes. Cells were resuspended in 5-10 ml of maintenance medium (Dulbecco's Modified Eagle Medium ("DMEM") containing 10% fetal calf serum, […], […], and 2 mM glutamine). Cells were maintained by splitting the culture once weekly into two 75 cm^2 T-flasks at a concentration of 3×10^4 cells/ml in a total volume of […] maintenance medium.
(§2) On day 0, the cells were plated into the wells of a 24 well tissue culture plate (Falcon #3047) at a concentration of 2.4×10^4 cells per well. The cells were incubated overnight at 37° C. The next day the medium was aspirated, and 200 μl of HIV virus at a multiplicity of infection ("MOI") of 0.03 was added to each well. The plates were then incubated for 2 hours at 37° C. After the 2 hour incubation, the cells were treated with 800 μl of drug at a concentration (in DMEM) of 1.25× of the final concentration.
(§3) The treated cells were incubated for 3 days at 37° C. On day 4 the plate was fixed with 1 ml/well of 100% methanol for 15 minutes. The wells were then aspirated and 0.5 ml of 0.3% crystal violet stain was added to the wells. […] Plaques were counted using a microscope. […]

HIV-1 (LAI) [2] = assay: p24 assay, PBMC infected with HIV-1 (LAI); assay type: cell-based, HIV-1; PBMC
[3] = tested on: replication defective HIV generated by 8e5 cells; assay: p24 production by 8e5 cells (p24 capture ELISA of cell lysates); assay type: cell-based, HIV; human T-cell line 8e5; conditions: for inhibiting p24 production (in words): summary of Table 3; for inhibition / p24 production: range over experiments
Protocol: The effect of several phosphorothioate antisense oligonucleotides on HIV replication was determined by measuring p24 (an HIV-specific polypeptide) produced by 8e5 cells. The 8e5 cell line is a human T-cell line that generates replication defective HIV (Folks et al. U.S. Pat. No. 4,752,565). The defective HIV contains a single integrated provirus that expresses all HIV proteins at levels typically observed in chronically infected cell lines except those encoded by pol. This defect is due to a single base insertion that causes a frame shift mutation in pol.
Oligonucleotides having phosphorothioate linkages were synthesized according to Bhatt supra. Synthesized oligonucleotides were purified using HPLC, extracted with ethyl acetate, ethanol precipitated, washed with 80% ethanol and suspended in sterile water to generate high concentration stock solutions that facilitated small volume addition (2-20 μl).
Phosphorothioate antisense oligonucleotides were added directly to 8e5 cultures. Sterile water and non-specific phosphorothioate oligonucleotides were utilized as controls. The cultures were harvested after 4 days, and the viable cell count and production of p24 antigen were determined. Cell lysates were prepared by spinning down cells from 2 ml wells at 1000 rpm for 10 minutes at 4° C. using a Beckman J-10, and removing the supernatant. The cells were then washed with 5 ml of Hanks balanced salt solution (Gibco) or sterile saline solution (0.9% NaCl), and spun down at 1000 rpm for 10 minutes at 4° C. using a Beckman J-10. The cells were resuspended in 300 μl of TSM (10 mM Tris-HCl pH 7.5, 150 mM NaCl, 2 MM MgCl2) with 0.5% NP-40, and incubated on ice for 5 minutes. The nuclei and cellular debris were then spun down at 2000 rpm using a Beckman J-10. The amount of p24 antigen was determined in cell lysates using a p24 capture ELISA (American Biotechnologies, Inc.).
The ELISA assay for p24 was selected as a measure of HIV replication because expression of tat and rev are required for efficient p24 production. The percentage of HIV p24 production was calculated as p24/cell production by antisense treated cells divided by p24/cell production by control treated cells. Control treated cells were treated with a random control phosphorothioate oligonucleotide (SEQ. ID. NO. 47: AGGCTTCATCACGTGGACATTGACG).

[4] = tested on: HIV patient isolates (AO18); assay: Plaque assay, HeLa-CD4 cells infected with patient isolates (AO18); assay type: cell-based, HIV; HeLa-CD4 cells; conditions: plaques formed
Protocol: as §1, §2, §3

[5] = tested on: HIV patient isolates (PO22); assay: Plaque assay, HeLa-CD4 cells infected with patient isolates (PO22); assay type: cell-based, HIV; HeLa-CD4 cells; conditions: plaques formed
Protocol: as §1, §2, §3

HIV-2 (ROD) = assay: Plaque assay, HeLa-CD4 cells infected with HIV-2 (ROD); assay type: cell-based, HIV-2; HeLa-CD4 cells; conditions: HeLa-CD4, HIV-2 (ROD), plaques formed
Protocol: as §1, §2, §3

human bone marrow cells = assay: Cytotoxicity: colony formation of human bone marrow cells; assay type: cell-based; conditions: agar medium with G-CSF, eight days in culture
Protocol: The cytotoxicity of the test oligonucleotides was determined in a system using primary human blood cells using techniques known to those of skill in the art to measure cytotoxicity of anti-neoplastic agents. Human bone marrow cells were harvested and washed in an isotonic solution, then incubated in tissue culture medium containing 0.3% (w/v) agar, 20% (v/v) fetal calf serum, and 10 ng/ml granulocyte-colony stimulating factor with varying amounts of the two test oligonucleotides. The number of colonies formed were measured after eight days in culture. The IC50 for colony formation in this experiment was 2-3 μM for SEQ. ID. NO: 18 and 20-30 μM for SEQ. ID. NO: 22.

[6] = In vivo mouse study: blood parameters, body weight and organ morphology; conditions: mice, 100 mg/kg
Protocol: In vivo experiments were also performed using rodent models. These experiments focused on the potential for gross morphological changes in blood tissue upon administration of a phosphorothioate linked oligonucleotide having the nucleic acid sequence of SEQ. ID. NO: 18 (in a solution of PBS). Three mice were given the oligonucleotide at a dose of 100 mg/kg body weight. Four control mice were given PBS alone. Blood samples were taken from each animal at t=0, and at 24 hours each animal was sacrificed and the organs removed. The experimental findings with regard to blood parameters are shown in Table 5, and the results obtained upon visual inspection of the organs are shown in Table 6.

[7] = 10 μM, Table 3 (small length oligonucleotides)
[8] = 20 μM, Table 3 (small length oligonucleotides)
[9] = 2 μM, 4 days, Table 2, relative to cells treated with random control oligonucleotide SEQ. ID. NO. 47
[10] = 10 μM, 4 days, Table 2, relative to cells treated with random control oligonucleotide SEQ. ID. NO. 47

Cc1cn([C@H]2C[C@H](N=[N+]=[N-])[C@@H](CO)O2)c(=O)[nH]c1=O [AZT, reference compound]
IC50 (HIV-1 (LAI) [1]; Human immunodeficiency virus 1): 7 to 20 nM
IC50 (HIV-1 (LAI) [2]; Human immunodeficiency virus 1): 3 nM

ATTCTGCTATGTCGACACCCAA (ATTCTGCTATGTCGACACCCAA; chemistry not given here) [SEQ. ID. NO. 46]
% p24 production [3, 7]: 87%
% p24 production [3, 8]: 81%
inhibiting p24 production (in words) [3]: effective

ATTGGTACAAGCAGTTTTAGGCT (ATTGGTACAAGCAGTTTTAGGCT; chemistry not given here) [SEQ. ID. NO. 31]
% p24 production [3, 9]: 100%
% p24 production [3, 10]: 15%

CGGGCCTGTCGGGTCCCCTCGGGA (CGGGCCTGTCGGGTCCCCTCGGGA; chemistry not given here) [SEQ. ID. NO. 36]
% p24 production [3, 9]: 71%
% p24 production [3, 10]: 89%

CTGTCGGGTC CCCTCGGG (CTGTCGGGTCCCCTCGGG; chemistry not given here) [SEQ. ID. NO. 26]
% p24 production [3, 8]: 44%
inhibiting p24 production (in words) [3]: particularly effective

CTTCGGGCCTGTCGGGTCCCCTCGGG (CTTCGGGCCTGTCGGGTCCCCTCGGG; chemistry not given here) [SEQ. ID. NO. 18]
% p24 production [3, 9]: 55%
% p24 production [3, 10]: 0%
inhibition [3]: 70-100%
p24 production [3]: 0 to 30%
IC50 (HIV-1 (LAI) [1]): 200 nM
IC50 ([4]; AZT Resistant): 55 nM
IC50 ([4]; AZT Sensitive): 80 nM
IC50 ([5]; AZT Resistant): 18 nM
IC50 ([5]; AZT Sensitive): 45 nM
IC50 (HIV-2 (ROD)): 18 nM
IC50 (HIV-1 (LAI) [2]): 120 nM
IC50 (human bone marrow cells): 2000 to 3000 nM
HGB ([6]; 0 hr): 16.0 ± 0.2 g/dL
PLT ([6]; 0 hr): 111.8 ± 2.7 ×10^4 /μl
RBC ([6]; 0 hr): 1032.3 ± 8.1 ×10^4 /μl
WBC ([6]; 0 hr): 94.7 ± 18.2 ×10^2 /μl
Body Weight ([6]; 24 hours): Unchanged
Morphological findings, Bone Marrow ([6]; 24 hours, visual inspection): Normal
Morphological findings, Heart ([6]; 24 hours, visual inspection): Normal
Morphological findings, Kidney ([6]; 24 hours, visual inspection): Normal
Morphological findings, Liver ([6]; 24 hours, visual inspection): Normal
Morphological findings, Spleen ([6]; 24 hours, visual inspection): Slight Splenomegaly
Morphological findings, Thymus ([6]; 24 hours, visual inspection): Normal
HGB ([6]; 24 hr): 15.3 ± 0.5 g/dL
PLT ([6]; 24 hr): 99.4 ± 0.9 ×10^4 /μl
RBC ([6]; 24 hr): 990.3 ± 34.3 ×10^4 /μl
WBC ([6]; 24 hr): 79.3 ± 15.3 ×10^2 /μl

GAGCTCTTCGTCGCTGTCTCCGCTTCT (GAGCTCTTCGTCGCTGTCTCCGCTTCT; chemistry not given here) [SEQ. ID. NO. 17]
% p24 production [3, 9]: 99%
% p24 production [3, 10]: 56%

GCCTATTCTGCTATGTCGACACCCAA (GCCTATTCTGCTATGTCGACACCCAA; chemistry not given here) [SEQ. ID. NO. 35]
% p24 production [3, 9]: 56%
% p24 production [3, 10]: 0%
inhibition [3]: 70-100%
p24 production [3]: 0 to 30%

GCCTGTCGGG TCCC (GCCTGTCGGGTCCC; chemistry not given here) [SEQ. ID. NO. 22]
% p24 production [3, 7]: 3%
% p24 production [3, 8]: 31%
inhibiting p24 production (in words) [3]: particularly effective
IC50 (human bone marrow cells): 20000 to 30000 nM

GCCTGTCGGG TCCT (GCCTGTCGGGTCCT; chemistry not given here) [SEQ. ID. NO. 20]
% p24 production [3, 7]: 55%
% p24 production [3, 8]: 42%
inhibiting p24 production (in words) [3]: particularly effective

GCTTCTTCCTGCCATAGGAGA (GCTTCTTCCTGCCATAGGAGA; chemistry not given here) [SEQ. ID. NO. 33]
% p24 production [3, 9]: 109%
% p24 production [3, 10]: 74%

GGGCCTGTCGGGTCCCCTCGGG (GGGCCTGTCGGGTCCCCTCGGG; chemistry not given here) [SEQ. ID. NO. 29]
% p24 production [3, 7]: 79%
% p24 production [3, 8]: 58%
inhibiting p24 production (in words) [3]: particularly effective

TTGGGAGGTG GGTTGCTTTG (TTGGGAGGTGGGTTGCTTTG; chemistry not given here) [SEQ. ID. NO. 14]
% p24 production [3, 9]: 103%
% p24 production [3, 10]: 66%
